From US10960078B2 (priority 2013, dated 2021)
pIC50: −log10 of the molar value.

What was measured:
[1] = In vivo biodistribution in MCF-7 tumor-bearing mice; design: species or system Balb/c female nude mice; settings: MCF-7 tumor-bearing nude mice, i.v.; Cb 3.5, Ir 6.7, Ir-Cb nanoparticles 10 mg kg^−1
Description: Furthermore, to examine the amount of Ir-Cb ADDC in the tumors and other organs, the MCF-7 tumor-bearing mice were sacrificed after intravenous injection with different time intervals. The tumor-bearing mice treated with free Cb and Ir were used as controls. […] After injection for 6 h, the content of Ir-Cb ADDC obviously decreases in kidney, spleen and lung, whereas the downward trend in tumor and liver is slower (FIG. 13b). […] After 6 h, the Ir concentration in spleen and lung decreases quickly.
The biodistribution of Cb, Ir and Ir-Cb nanoparticles was analyzed in Balb/c female nude mice bearing MCF-7 tumors. The MCF-7 tumor-bearing mice were intravenously injected via tail vein with Cb, Ir and Ir-Cb nanoparticles at a dose of Cb (3.5 mg kg^−1), Ir (6.7 mg kg^−1) and Ir-Cb nanoparticles (10 mg kg^−1). Mice were sacrificed by cervical vertebra dislocation at 30 min, 1 h and 6 h after drug administration (n=3 at each time point), and the heart, liver, spleen, lung, kidney and tumor were collected. Tissue samples were rinsed in saline, blotted using paper towel, weighed and stored at −80° C. before being homogenized. Cb, Ir and Ir-Cb were extracted from the homogenate using 2 mL of dichloromethane and methanol (4:1, v/v). The organic phases were collected and dried, and the samples were dissolved in acetonitrile for analysis.

MCF-7 cells [2] = format: cell-based, human; settings: 30 μM, 24 h
Description: The untreated cells were used as control.
MCF-7 cells were seeded in 6-well plates at 5.0×10^5 cells per well in 2 mL of complete DMEM and cultured for 24 h. […] MCF-7 cells without the treatment were used as a control. […] For cell cycle determination, treated cells were collected, washed for twice with ice-cold PBS, fixed with 70% ethanol at 4° C. overnight and treated with Rnase A for 45 min at 37° C., followed by PI staining for 30 min in the dark.

[3] = Pharmacokinetic study (blood retention) after i.v. injection; settings: rats, 8 mg kg^−1, 12 h
Description: The blood samples (0.5 mL) were taken from the eye socket at the 5 min, 15 min, 30 min, 1 h, 2 h, 4 h, 6 h, 8 h, and 12 h time points after injection. The plasma was obtained by centrifugation at 3,000 rpm for 10 min and stored at −20° C. A 200 μL of plasma was treated two times with 250 μL of acetonitrile and methanol mixture (1:1 v/v). The solvent solutions separated by centrifugation were pooled.

caspase-3 = experiment: Western blot analysis of caspase-3 expression; format: cell-based, human; settings: MCF-7 cells, 30 μM, 24 h
Description: The untreated MCF-7 cells were used as a negative control.
MCF-7 cells were seeded in 6-well plates at a density of 5.0×10^5 cells per well in 2 mL of complete DMEM and allowed to attach for 24 h. […] MCF-7 cells untreated were used as a negative control. After treatment for 24 h, the MCF-7 cells were harvested. The cellular proteins were extracted in Laemmli buffer and the protein content in the extracts was quantified using a bicinchoninic acid (BCA) protein assay kit (Pierce, USA). Equal amounts of proteins (30 μg lane^−1) were separated on sodium dodecyl sulfate-polyacrylamide gels (SDS-PAGE) and electrotransferred to 0.22 μm polyvinylidene fluoride (PVDF) membranes. The membranes were then blocked with 5% non-fat dry milk in TBST (Tris buffered saline supplemented with 0.05% Tween-20) and probed with antibodies against β-actin (1:1,000 dilution), caspase-3 (1:1,000 dilution) followed by HRP-conjugated (HRP: horseradish peroxidase) anti-rabbit immunoglobulin-G (IgG, 1:5,000 dilution). β-Actin was used as the loading control. Protein bands were detected using Chemiluminescent HRP Substrate (Themo Scientific, USA) according to the manufacture's protocol and analyzed using the ChemiDoc™ MP Imaging System (Bio-Rad, USA).

MCF-7 tumor [4] = format: in vivo, Balb/c female nude mice; settings: for tumor inhibitory rate (TIR): from tumor weight versus PBS group, 24 days
Description: Tumor volume and body weight of tumor-bearing mice were monitored every 3 days within 24 days. […] The tumor inhibitory rate (TIR) was calculated from tumor weight.
Study protocols involving animals were approved by the Animal Ethics Committee of Shanghai Jiao Tong University School of Medicine. SD rats (˜200 g) and 72 Balb/c female nude mice (4 weeks of age) were supplied by Chinese Academy of Sciences (Shanghai). The female nude mice were injected subcutaneously in the right flank region with 200 μL of cell suspension containing 4×10^6 MCF-7 cells. The tumors were allowed to grow to ˜200 mm^3 before experimentation.
Each mouse of different group was earmarked and followed individually throughout the whole experiments. The length and width of the tumor and the body weight of mice were measured before every injection by the end of experiment. Tumor volume (V) was calculated using the formula: V (mm^3)=½×length (mm)×width (mm)^2. After 24 days postinjection, mice were sacrificed, and tumors were separated, weighted and photographed. In addition, the tumors were cut into small pieces, fixed in 10% formalin and embedded in paraffin. Then the tissues embedded in paraffin were sectioned for histopathological analysis with H&E staining.

MCF-7 cells [5] = experiment: Cell cycle assay (PI staining, flow cytometry); format: cell-based, human; settings: 30 μM, 24 h
Description: MCF-7 cells were seeded in 6-well plates at 5.0×10^5 cells per well in 2 mL of complete DMEM and cultured for 24 h. […] MCF-7 cells without the treatment were used as a control. For quantitative measurement of apoptosis, treated cells were harvested and washed twice with ice-cold PBS, stained with Alexa Fluor® 488 annexin V and PI according to the manufacturer's instructions. For cell cycle determination, treated cells were collected, washed for twice with ice-cold PBS, fixed with 70% ethanol at 4° C. overnight and treated with Rnase A for 45 min at 37° C., followed by PI staining for 30 min in the dark. Both cell apoptosis and cycle were analyzed by flow cytometry (BD FACSCalibur, USA), and […] per sample were counted.

MCF-7 cells [6] = experiment: In vitro cytotoxicity by MTT assay, MCF-7 cells
Description: The cells without any treatment were used as the control.
The cells were seeded into 96-well plates at 1×10^4 cells per well in 200 μL of culture medium. […] The cells without the treatment were used as control. The cells were grown for another 72 h. Then, 20 μL of 5 mg mL^−1 MTT assay stock solution in PBS was added to each well. After the cells were incubated for 4 h, the medium containing unreacted MTT was carefully removed. Then, the obtained blue formazan crystals were dissolved in 200 μL well^−1 DMSO, and the absorbance was measured in a BioTek Synergy H4 hybrid reader at a wavelength of 490 nm. The blank was subtracted to the measured optical density (OD) values, and the cell viability was expressed as % of the values obtained for the untreated control cells.

[7] = In vitro drug release by dialysis in buffered solutions; settings: pH 5.0, 37° C.
MCF-7 tumor [8] = experiment: Immunohistochemical analysis of tumor tissues (H&E, PCNA); format: in vivo, Balb/c female nude mice; settings: MCF-7 tumors after treatment
Description: 3 days after the last injection, mice were sacrificed and tumor tissues were excised. The tissues were fixed in 10% formalin and embedded in paraffin. The paraffin-embedded 5 μm tumor sections were analyzed by immunohistochemical analysis for PCNA expression. To analyze the PCNA, endogenous peroxidase activity was inhibited by 3% hydrogen peroxide aqueous solution for 10 min, and the sections were heated to boiling in 0.01 M sodium citrate buffer (pH 6.0) for 10 min in the microwave oven for antigen retrieval and repeated boiling process for once. Subsequently, the sections were allowed to cool in the same buffer, rinsed twice with PBS for 5 min and then incubated with PCNA antibody (Boster, China, 1:200) for 30 min at room temperature and then at 4° C. overnight. After washing, sections were incubated with biotinylated secondary antibodies for 20 min at 37° C. Finally, a streptavidin-biotin complex was applied and the immunoreactivity was visualized with diaminobenzidine as a chromogen. The sections were imaged by using Olympus Fluorescence Microscope (Olympus BX61). […]
Each mouse of different group was earmarked and followed individually throughout the whole experiments. The length and width of the tumor and the body weight of mice were measured before every injection by the end of experiment. Tumor volume (V) was calculated using the formula: V (mm^3)=½×length (mm)×width (mm)^2. […]

MCF-7/ADR cells = experiment: Accumulation and efflux assay in MCF-7 and MCF-7/ADR cells (flow cytometry); format: cell-based, human; settings: 30 μM, 1-4 h incubation
Description: The fluorescent intensity was calculated by CellQuest software, and blanked by untreated cells.

[9] = Self-assembly of Ir-Cb ADDC in water: size and morphology by DLS and TEM; format: physicochemical
Description: The inherent amphiphilicity of the Ir-Cb ADDC provides an opportunity for itself to self-assemble into nanoparticles in water. To determine the size and morphology of the self-assembled nanoparticles, a dimethylsulfoxide (DMSO) solution of the Ir-Cb ADDC was added dropwise into water, followed by dialysis against water to remove DMSO. A stable and bluish solution with the final Ir-Cb conjugate concentration of 0.5 mg mL^−1 was obtained. FIG. 7a gives the dynamic light scattering (DLS) curve of Ir-Cb ADDC aqueous solution with a concentration of 0.5 mg mL^−1, indicating the formation of aggregates with a narrow unimodal distribution and an average hydrodynamic diameter of approximate 88.3 nm. The morphology of the aggregates was observed by transmission electron microscopy (TEM). […] This size is slightly smaller than that measured by DLS due to the shrinkage of nanoparticles in a drying state during TEM sample preparation. […]
^1H and ^13C nuclear magnetic resonance (^1H NMR and ^13C NMR) spectra were recorded using a Varian Mercury Plus 400 MHz spectrometer. Fourier transform infrared (FTIR) spectra were recorded on a Paragon 1,000 instrument by KBr sample holder method. […] All samples were measured at a scattering angle of 90°. […] Ultraviolet-visible (UV-Vis) absorption of the sample solutions was measured at room temperature by using a Thermo Electron-EV300 UV-Vis spectrophotometer. […]

[10] = Critical aggregation concentration (CAC) measurement with pyrene fluorescent probe; format: physicochemical; settings: in water, pyrene I3/I1
Description: To investigate the self-assembly behavior of Ir-Cb ADDC in water, the critical aggregation concentration (CAC) was measured by using pyrene as a fluorescent probe. I1 and I3 are the emission intensities of the first and third bands in the fluorescence spectrum of pyrene respectively, which are labeled as 1 and 3 in the inset of FIG. 7c. The emission intensity ratio of I3/I1 is very sensitive to the polarity of the medium surrounding pyrene molecules. (Kwon, et al. 1993 Langmuir 9, 945-949.) The higher polarity of the medium, the lower the intensity ratio is. The relationship of the I3/I1 ratio with the Ir-Cb ADDC concentration is present in FIG. 7c. At low Ir-Cb ADDC concentration, the I3/I1 value remains nearly unchanged, indicating the characteristics of pyrene in water environment. With increasing Ir-Cb ADDC concentration, the ratio of I3/I1 starts to increase dramatically and reaches the characteristic level of pyrene in hydrophobic environment at a certain Ir-Cb ADDC concentration. According to the inflexion of the curve, the CAC value of the Ir-Cb ADDC is about 7 μg mL^−1.
To determine the CAC value of the Ir-Cb ADDC, pyrene was used as the fluorescence probe. […] The fluorescence emission spectra of all samples were recorded on a LS-50B luminescence spectrometer (Perkin Elmer Co.) at 335 nm excitation wavelength and 8 nm slit width. The I3/I1 values of all solution were recorded.

| SMILES | tissue distribution [1] | ratio of apoptosis cells (MCF-7 cells [2]) | plasma concentration after 12 h relative to Ir-Cb ADDC [3] | caspase-3 protein expression versus untreated control (caspase-3) | tumor volume compared with the PBS group (MCF-7 tumor [4]; after 24 days treatment, i.v. once every 3 days) | tumor inhibitory rate (TIR) (MCF-7 tumor [4]) | percentage of G0/G1 phase (MCF-7 cells [5]) | percentage of G2/M (MCF-7 cells [5]) | percentage of S (MCF-7 cells [5]) | pIC50 (MCF-7 cells [6]; Homo sapiens, MCF7, 72 h) | cytotoxicity compared with free Cb (MCF-7 cells [6]; MCF-7 cells) | Ir release / hydrolysis at pH 5.0 [7] | H&E histology of tumor tissue (MCF-7 tumor [8]) | accumulation in MCF-7/ADR cells compared with that in MCF-7 cells (MCF-7/ADR cells) | average hydrodynamic diameter (Dh) by DLS ([9]; aqueous solution 0.5 mg mL^−1) | average size of spherical nanoparticles by TEM ([9]; dried state) | anticancer efficiency compared with free Ir and Ir/Cb mixture (MCF-7 cells [6]; MCF-7 cells, concentration higher than the CAC value) | antitumor activity compared with free Ir and Ir/Cb mixture (MCF-7 cells [6]; MCF-7 cells, drug concentration lower than the CAC value) | critical aggregation concentration (CAC) [10] |
| --- | --- | --- | --- | --- | --- | --- | --- | --- | --- | --- | --- | --- | --- | --- | --- | --- | --- | --- | --- |
| O=C(O)CCCc1ccc(N(CCCl)CCCl)cc1 [Cb, chlorambucil] | largely accumulates in liver, followed by spleen, lung, heart and kidney | 18.02% | one twenty-fifth | up-regulated slightly | 91.60±2.09% | 9.3±2.10% |  |  |  |  |  |  |  |  |  |  |  |  |  |
| CCc1c2c(nc3ccc(OC(=O)N4CCC(N5CCCCC5)CC4)cc13)-c1cc3c(c(=O)n1C2)COC(=O)[C@]3(O)CC [Ir, irinotecan] | mainly accumulates in liver, followed by spleen, lung, kidney and heart up to 2 h |  |  | up-regulated slightly |  | 42.3±6.63% | 34.25% | 27.81% | 37.93% | ~5.30 | much higher than that of free Cb |  |  |  |  |  |  |  |  |
| CCc1c2c(nc3ccc(OC(=O)N4CCC(N5CCCCC5)CC4)cc13)-c1cc3c(c(=O)n1C2)COC(=O)[C@@]3(CC)OC(=O)CCCc1ccc(N(CCCl)CCCl)cc1 [Ir-Cb ADDC] | accumulate in liver, spleen, kidney, lung and tumor at first 2 h |  |  |  |  |  |  |  |  |  |  | hydrolysis of Ir-Cb ADDC is accelerated | large necrotic area is observed | about ½ | ~88.3 nm | ~75.7 nm | much better anticancer efficiency than free Ir and Ir/Cb mixture | worse than that of free Ir and Ir/Cb mixture | about 7 μg mL^−1 |
